Results taken from US11497796B2, “Agents directed against a cis RGMa/neogenin interaction or lipid rafts and use of the same in methods of treatment” (UNIVERSITY HEALTH NETWORK, priority 2013, dated 2022).

Tests used:
[1] = system: retinal axons (axonal pathfinding); test: In ovo electroporation and DiI tracing of axonal paths; assay type: in vivo, chick; conditions: ectopic expression in the eye at E2
Description: Eggs (White Leghorn) were incubated at 38° C. in a high humidity chamber. A small amount of viral solution (viral titers of 1×10^8 IU/ml) was mixed with 1/10 volume of 0.25% fast green solution (Molecular Probes) and injected in the tectum at E1.5. Eggs were further incubated until E15, when a small DiI crystal (Molecular Probes) was placed in the temporo-dorsal part of the right eye. At E17, embryos were sacrificed and the tecta fixed in 4% PFA. DiI tracing was viewed under the microscope (Olympus BX61) after cutting the tecta in half. Digital Images of the tecta were taken and processed using Photoshop (Adobe). Alternatively, plasmid constructs were electroporated into the optic vesicle to restrict expression to the eye and tracing performed as above.
To study the effect of the interaction between 4Ig and N-Raft on axonal paths in vivo, 4Ig, N-Raft, and the control NRGMa^50-99 were ectopically expressed and axonal pathfinding was examined. To ensure that the treatments affected growing axons and not their environment, when electroporation was performed, the application of the electric field was narrowed to the optic vesicle at E2, thereby restricting expression to the eye and retinal axons (FIG. 3G).

[2] = system: Neogenin-induced apoptosis in chick tecta; test: TUNEL assay after Neogenin electroporation; assay type: in vivo; conditions: injected into tecta after Neogenin electroporation; for number of TUNEL+ cells: without agent 432±23
Description: (A) HEK293 cells that stably express RGMa (FIG. 11) were transfected with empty plasmid (Ctrl) or Neogenin (Neo). Neogenin induced cell death (arrows) when compared to control. (B) Quantification of cell death in Neogenin-transfected cells that were incubated in BSA (Neo+Ctrl), 4Ig (1 μg/ml), N-Raft (1 μg/ml), Noggin (100 nM), or MβCD (10 mM). […] Data were average±SEM (n=3 independent experiments), *p<0.0001. (C) Representative images and (D) Quantification of cell death in chick E5 tecta electroporated with GFP- and a Neogenin-expression plasmid and then injected with N-RGMa50-99 (Ctrl; 1 μg/ml), 4Ig (1 μg/ml), or N-Raft (1 μg/ml) and subjected to TUNEL assay. […] Data were an average±SEM from 3 different tecta/conditions (*p<0.001). Bar, 100 μm. (E) Representative images and (F) Quantification of retinal whole mounts incubated for 4 days with control peptide (1 μg/ml), 4Ig (1 μg/ml), N-Raft (1 μg/ml), or MβCD (10 mM) and dead cells were stained with Propidium Iodide (PI). Images from 9 whole mounts per condition from 3 independent experiments were taken at the same intensities and the fluorescence measured using ImageJ. […] Bar, 500 μm. (G) Fluorescence micrographs of flat-mounted retinas depicting Fluorogold-labeled retinal ganglion cells (RGCs) in injured retinas at 14 days following axotomy. Control retinas (Ctrl) had few surviving RGCs. 4Ig, N-raft or MβCD increased cell survival. Bar, 200 μm. (H) Representations of the retinal areas selected in our analyses. […] Data were average±SEM (n=6 eyes), *p<0.01.
RGMa was expressed in the developing chick neural tube, and thus, to determine if Neogenin required lipid rafts for its pro-death function in vivo, apoptosis was examined in the neural tubes of chick embryos (E2). Specifically, a GFP-construct was electroporated with plasmids that expressed either Mock or Neogenin and apoptosis was assayed by TUNEL staining.

photoreceptor cells = test: Photoreceptor survival in rd1 mice (retinitis pigmentosa model); assay type: in vivo, mouse
Description: The rd1 mouse model is a model for human RP and carried a loss-of-function mutation in the gene encoding for the β-subunit of the rod photoreceptor cGMP phosphodiesterase-6.2. This loss-of-function mutation led to an accumulation of cGMP, which caused photoreceptor cell death.
In these studies, intraocular injection of the 4Ig (2 μg/μl) peptide at P9 and P15 was performed and animals were sacrificed at P21 to examine cell survival. […] Injection of 4Ig increased outer nuclear layer (ONL) thickness to about 6 cells (FIG. 19). This measurement was the average thickness of the ONL.
As described above, cholesterol depletion removes lipid rafts. Specifically, mice were treated with daily […] (IP) injections of MβCD from P9 to P21.
To examine the effect of reducing cholesterol synthesis on cell survival, AY-9944 was examined in rd1 mice (FIGS. 20 and 21). Rd1 mice were treated using two intra-peritoneal injections of AY-9944, at P9 and P15 and sacrificed at P21.

[3] = intraocular injection at P9 and P15

Molecule | electroporations that caused aberrant axonal paths [1] [%] | reduction of the number of TUNEL+ cells [2] | number of TUNEL+ cells [2] | average depth of the ONL (photoreceptor cells; daily injections P9 to P21) | increase in the average thickness of the ONL (photoreceptor cells; daily injections P9 to P21) | photoreceptor survival (photoreceptor cells; daily injections P9 to P21) | number of rods within the Outer Nuclear Layer (anti-Rhodopsin) (photoreceptor cells; injected at P9, P21) | outer nuclear layer (ONL) thickness (photoreceptor cells; intraocular injection 2 μg/μl at P9 and P15, P21, control about 2 cells) | increase of ONL thickness compared to control mice (photoreceptor cells; [3]) | number of photoreceptors within the retina vs control (photoreceptor cells; [3])
N-Raft: peptide spanning amino acids 28-73 of RGMa (SEQ ID NO:2) (SPCKILKCNSEFWAATSGSHHLGAEETPEFCTALRAYAHCTRRTAR; N-Raft - amino acids 28-73 of RGMa) | 85.7 | about 4 fold | 103±8 | – | – | – | – | – | – | –
methyl-β-cyclodextrin [MβCD, reference compound] | – | – | – | about 6 cells | three-fold | photoreceptor survival was improved | dramatic increase in the number of rods | – | – | –
4Ig: four immunoglobulin-like domains of Neogenin, amino acids 1 to 383 of Accession No. AAC59662 (SEQ ID NO:1) (protein, listed as Gallus gallus, Neogenin - Accession No. AAC59662) RSGPRSPLTGSVVRTFTPFYFLVEPMDILSVRGASVIMNCSSYCETPPKIEWKKDGTLLNLVSDDRRQLLPDGSLLINSVVHSKHNKPDEGYYQCVATVESLGSIVSRTAKLTVAGLPRFTSQPELSSVYKGNSAILNCEVNVDLAPFVRWEQDRQPLSLDDRVFKLPSGALLIGNATDTDGGFYRCVIESGGTPKYSEEAELKILPDPEEPQSLVFVRQPSSLTKVTGQNAVFPCVAGGFPTPYVRWTKNGEELITEDSERFALRAGGSLLISDVTEEDVGTYTCIADNENETIEAQAELAVQVPPEFLKRPANIYAHESMDIVFECEVTGKPTPTVKWVKNGDVVIPSDYFKIVKEHNLQVLGLVKSDEGFYQCIAENDVGNAQAGAQLIILDLDVAIPTLPPTSLTSATNDHLAPATTGPLPTAPRDVVATLVSTRFIRLTWRTPVSDPQGDNLTYSIFYTKEGINRERVENTSRPGETQVMIQNLMPETVYVFRVVAQNKHGHGESSAPLKVATQPEVQLPGPAPNIRAYAGSPTSVTVTWETPLSGNGEIQNYKLYYMEKGQDSEQDVDVAGLSYTITGLKKYTEYSFRVVAYNKHGPGVSTQDVVVRTLSDVPSAAPQNLTLEARNSKSIMLHWQPPPAGTHSGQITGYKIRYRKVSRKSDVTESVGGTQLFQLIEGLERGTEYNFRIAAMTVNGTGPATDWVSAETFESDLDESRVPEVPSSLHVRPLVTSIVVSWTPPENQNIVVRGYAIGYGIGSPHAQTIKVDYKQRYYTIENLDPSSHYVITLKAFNNVGEGIPLYESAVTRPHSDTSEVDLFVINAPYTPVPDPSPMMPPVGVQASILSHDTIRITWADNSLPKNQKITDARYYTVRWKTNIPANTKYKTANATTLSYLVTGLKPNTLYEFSVMVTKGRRSSTWSMTAHGTTFELVPTSPPKDVTVVSKEGKPRTIIVNWQPPSEANGKITGYIIYYSTDVNAEIHDWVIEPVVGNRLTHQIQELTLDTPYYFKIQARNSKGMGPMSEAVQFRTPKAESSDKMPNDQASGSAGKGSRPVDVGPDYKPPLSGSNSPHGSPTSPLDSNMLLVIIVSVGVITIVIVVIVAVFCTRRTTSHQKKKRAACKSVNGSHKYKGNSKDVKPPDLWIHHERLELKPIDKSPDPNPIMTDTPIPRNSQDITPVDNSMDSNIHQRRNSYRGHESEDSMSTLAGRRGMRPKMMMPFDSQPPQPVISAHPIHSLDNPHHHFHSGSLASPTRSYLHHQVSPWPVGTSMSHSDRANSTESVRNTPSSDTMPASSSQPCADHQDPDSSSGAYLGSAQEEDAAQSLPTAHVRPSHPLKSFAVPAVPAAGSAYDPTLPSTPLLTQQAPSHPVHSVKTASIGTLGRTRPPMPVVVPSAPDVQETTRMLEDSESSYEPDELTKEMAHLEGLMKDLNAITTA | 100 | about 18 fold | 23±4 | – | – | – | – | about 6 cells | more than three-fold | significantly improved the number of photoreceptors
